Data: ChEMBL document CHEMBL1154572, “Stephanotic acid, a novel cyclic pentapeptide from the stem of Stephanotis floribunda” (2000)

Assays:
L1210 = test: Cytotoxicity against mouse L1210 cells; format: functional; conditions: L1210, read-out: ED50
KB = test: Cytotoxicity against human KB cells; format: functional; conditions: read-out: ED50

| Structure (SMILES) | EC50 (L1210) | EC50 (KB) |
| --- | --- | --- |
| CC[C@H](C)[C@@H]1NC(=O)[C@@H](NC(=O)[C@@H]2CCC(=O)N2)[C@@H](C(C)C)c2ccc3c(c[nH]c3c2)C[C@@H](C(=O)OC)NC(=O)[C@H](C(C)C)NC1=O [METHYL STEPHANATE] | > 50 µg/mL | > 50 µg/mL |
| CC[C@H](C)[C@@H]1NC(=O)[C@@H](NC(=O)[C@@H]2CCC(=O)N2)[C@@H](C(C)C)c2ccc3c(c[nH]c3c2)C[C@@H](C(=O)O)NC(=O)[C@H](C(C)C)NC1=O [STEPHANOTIC ACID] | > 50 µg/mL | > 50 µg/mL |
